Where “and” joins values, the source holds several entries; their conditions need not be identical. Identical values can stand only once.
How the values were obtained:
MBP-SENP1 = target: T1, MBP-SENP1 (Homo sapiens, UniProt Q9P0U3); assay: SENP1 Activity Assay; type: biochemical; details: 200 nM SUMO-AMC; 1.8 nM enzyme; pre-incubated 30 minutes at 25° C., 60 minutes at 37° C.; sigmoidal fit; read-out: SENP1 (Inhibition of cysteine protease activities)
T1 construct: made in house; host or cells: E. coli BL21
T1 sequence (Q9P0U3 1-644): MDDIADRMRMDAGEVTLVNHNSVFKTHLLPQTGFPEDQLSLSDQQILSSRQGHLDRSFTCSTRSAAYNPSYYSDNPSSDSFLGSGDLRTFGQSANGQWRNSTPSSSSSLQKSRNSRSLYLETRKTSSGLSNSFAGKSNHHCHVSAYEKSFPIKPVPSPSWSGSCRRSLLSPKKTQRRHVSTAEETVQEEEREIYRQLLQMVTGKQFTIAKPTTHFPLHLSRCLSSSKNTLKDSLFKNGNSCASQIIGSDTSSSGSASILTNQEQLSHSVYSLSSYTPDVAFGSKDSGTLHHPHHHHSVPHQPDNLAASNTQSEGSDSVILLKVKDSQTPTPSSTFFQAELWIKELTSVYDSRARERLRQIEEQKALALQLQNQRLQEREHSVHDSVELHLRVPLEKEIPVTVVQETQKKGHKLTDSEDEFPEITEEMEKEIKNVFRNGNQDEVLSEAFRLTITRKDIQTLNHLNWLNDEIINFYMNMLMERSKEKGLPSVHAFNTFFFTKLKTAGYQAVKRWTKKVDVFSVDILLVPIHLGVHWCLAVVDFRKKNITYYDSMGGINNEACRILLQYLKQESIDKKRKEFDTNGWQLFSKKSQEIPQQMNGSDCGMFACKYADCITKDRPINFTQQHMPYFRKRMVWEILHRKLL
Experimental: The cDNA encoding SENP1 was obtained by PCR amplification from placenta mRNA. SENP1 cDNA was subcloned by PCR into a bacterial expression vector (pMAL-C2X; New England BioLabs, Inc). The sequence was ascertained by sequencing of the entire open reading frame. pMAL-C2-SENP1 was transformed into BL21 cells and grown in LB-ampicillin medium supplemented with glucose (2 g.l^−1). Fusion protein expression was induced by IPTG (0.5 mM). Bacterial cell lysates were harvested and lyzed in lysis buffer (Tris HCl 20 mM pH7.4; 1 mM EDTA; 200 mM NaCl; 0.5% Triton X-100; 10% glycerol; Protease Inhibitor Cocktail) followed by sonication. Proteins were affinity purified on amylose affinity resin (New England BioLabs, Inc). Bound materials were extensively washed in wash buffer (20 mM Tris HCl pH7.4; 200 mM NaCl; 1 mM EDTA; 0.5% Triton X-100; 10% glycerol) and eluted from the resin in 10 mM maltose-containing wash buffer. Proteins were dialyzed in dialysis buffer (Tris HCl pH 7.6 20 mM; NaCl 200 mM; DTT 1 mM; EDTA 1 mM; 10% Glycerol). Proteins purifications were analyzed on 4-12% NuPAGE (Invitrogen).
MBP-SENP1 was diluted in SENP1 buffer (50 mM Tris HCl; 0.5 mM EDTA; 5 mM DTT; 0.01% Triton X-100; Bovine Serum Albumin 0.05 mg.ml^−1 pH7.6). Compounds stocks (100 mM) were stored at −20° C. in DMSO. Compounds were tested at the following final concentrations: 100 μM; 33.3 μM; 11.1 μM; 3.7 μM; 1.23 μM; 412 nM; 137 nM; 45.7 nM; 15.2 nM; 5 nM.
Reactions were performed as duplicates in Black LJL 96 well plates (HE microplates; Molecular Devices; 20 μl final reaction volume). The substrate concentration for SENP1 was 200 nM SUMO-AMC (Chem. Biol., 2003, 10, p. 837-846) (Boston Biochem). The concentration of the enzyme (SENP1) in specificity assays was 1.8 nM. The concentrations were determined in order to perform specificity assays under initial velocities at fixed substrate concentration. Compounds were pre-incubated with enzymes for 30 minutes at 25° C. Reactions were initiated by addition of substrate to the plates containing the enzymes (+/− compounds) diluted in assay buffer. Reactions were incubated for 60 minutes at 37° C. Reactions were stopped by adding acetic acid (100 mM final). Readings were performed on a Pherastar Fluorescent Reader (BMG). λ Emission 380 nm; λ Excitation=460 nm. Data (mean values +/− standard deviation) were analyzed as % of control (no compound) and plotted as percentage versus the Log of the compound concentration using GraphPad (Prism). Data were fitted to a sigmoidal model (variable slope).

Caspase 3 = target: T2, Caspase 3 (Homo sapiens, UniProt P42574); assay: Caspase 3 Activity Assay; type: biochemical; details: 500 nM Ac-DEVD-AMC; 3.2 nM enzyme; pre-incubated 30 minutes at 25° C., 60 minutes at 37° C.; sigmoidal fit; read-out: Caspase 3 (Inhibition of cysteine protease activities)
T2 sequence (P42574 29-175 limits assumed): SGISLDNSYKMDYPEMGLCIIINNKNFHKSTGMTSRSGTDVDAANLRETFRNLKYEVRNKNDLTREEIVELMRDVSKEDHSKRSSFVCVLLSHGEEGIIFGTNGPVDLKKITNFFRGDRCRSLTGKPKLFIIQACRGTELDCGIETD
T2 sequence (P42574 176-277 limits assumed): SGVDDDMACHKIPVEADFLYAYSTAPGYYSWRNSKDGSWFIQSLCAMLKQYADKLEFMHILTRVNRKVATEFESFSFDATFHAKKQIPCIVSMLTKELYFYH
Experimental: Caspase 3 was diluted in Caspase B buffer (100 mM Hepes pH 7.5; 10% sucrose; 0.1% CHAPS). Compounds stocks (100 mM) were stored at −20° C. in DMSO. Compounds were tested at the following final concentrations: 100 μM; 33.3 μM; 11.1 μM; 3.7 μM; 1.23 μM; 412 nM; 137 nM; 45.7 nM; 15.2 nM; 5 nM. Reactions were performed as duplicates in Black LJL 96 well plates (HE microplates; Molecular Devices; 20 μl final reaction volume). The substrate concentration for caspase 3 specificity assay was 500 nM (Ac-DEVD-AMC; Promega). The concentration of the enzyme (Caspase 3) in specificity assays was 3.2 nM. The concentrations were determined in order to perform specificity assays under initial velocities at fixed substrate concentration. Compounds were pre-incubated with enzymes for 30 minutes at 25° C. Reactions were initiated by addition of substrate to the plates containing the enzymes (+/− compounds) diluted in assay buffer. Reactions were incubated for 60 minutes at 37° C. Reactions were stopped by adding acetic acid (100 mM final) Readings were performed on a Pherastar Fluorescent Reader (BMG). δ Emission 380 nm; δ Excitation=460 nm. Data (mean values +/− standard deviation) were analyzed as % of control (no compound) and plotted as percentage versus the Log of the compound concentration using GraphPad (Prism). Data were fitted to a sigmoidal model (variable slope).

Compound	IC50 (MBP-SENP1)	IC50 (Caspase 3)
6-(7)-Chloro-1-methyl-2,3,4,10,10a-pentaaza-cyclopenta[b]fluoren-9-one [Example 3/A]	> 100000 nM	1510 nM
Cc1nnc2nc3c(nn12)C(=O)c1ccccc1-3 [Example 1b/A, 1-Methyl-2,3,4,10,10a-pentaaza-cyclopenta[b]fluoren-9-one]	–	4100 nM
Cc1nnc2nc3c(nn12)-c1ccccc1C3=O [Example 1b/B, 3-Methyl-1,2,3a,4,10-pentaaza-cyclopenta[b]fluoren-9-one]	706 nM	424 nM
Nc1nnc2nc3c(nn12)C(=O)c1ccccc1-3 [Example 1c/A, 1-Amino-2,3,4,10,10a-pentaaza-cyclopenta[b]fluoren-9-one]	–	3700 nM
Nc1nnc2nc3c(nn12)-c1ccccc1C3=O [Example 1c/B, 3-Amino-1,2,3a,4,10-pentaaza-cyclopenta[b]fluoren-9-one]	731 nM	–
CCc1nnc2nc3c(nn12)C(=O)c1ccccc1-3 [Example 1d/A, 1-Ethyl-2,3,4,10,10a-pentaaza-cyclopenta[b]fluoren-9-one]	> 100000 nM	11600 nM
CCc1nnc2nc3c(nn12)-c1ccccc1C3=O [Example 1d/B, 3-Ethyl-1,2,3a, 4,10-pentaaza-cyclopenta[b]fluoran-9-one]	415 nM	212 nM and 467 nM
CCCc1nnc2nc3c(nn12)C(=O)c1ccccc1-3 [Example 1e/A, 1-Propyl-2,3,4,10,10a-pentaaza-cyclopenta[b]fluoren-9-one]	5880 nM	> 100000 nM
CCCc1nnc2nc3c(nn12)-c1ccccc1C3=O [Example 1e/B, 3-Propyl-1,2,3a, 4,10-pentaaza-cyclopenta[b]fluoren-9-one]	694 nM	727 nM
CCCCc1nnc2nc3c(nn12)C(=O)c1ccccc1-3 [Example 1f/A, 1-Butyl-2,3,4,10,10a-pentaaza-cyclopenta[b]fluoren-9-one]	> 100000 nM	4600 nM
CCCCc1nnc2nc3c(nn12)-c1ccccc1C3=O [Example 1f/B, 3-Butyl-1,2,3a,4,10-pentaaza-cyclopenta[b]fluoren-9-one]	229 nM	475 nM
CC(C)Cc1nnc2nc3c(nn12)C(=O)c1ccccc1-3 [Example 1g/A, 1-Isobutyl-2,3,4,10,10a-pentaaza-cyclopenta[b]fluoren-9-one]	> 100000 nM	> 100000 nM
CC(C)Cc1nnc2nc3c(nn12)-c1ccccc1C3=O [Example 1g/B, 3-Isobutyl-1,2,3a,4,10-pentaaza-cyclopenta[b]fluoren-9-one]	954 nM	629 nM
O=C1c2ccccc2-c2nc3nnc(CO)n3nc21 [Example 1h/A, 1-Hydroxymethyl-2,3,4,10,10a-pentaaza-cyclopenta[b]fluoren-9-one]	–	3900 nM
O=C1c2ccccc2-c2nn3c(CO)nnc3nc21 [Example 1h/B]	1020 nM	1020 nM
COCc1nnc2nc3c(nn12)C(=O)c1ccccc1-3 [Example 1i/A, 1-Methoxymethyl-2,3,4,10,10a-pentaaza-cyclopenta[b]fluoren-9-one]	22100 nM	926 nM
COCc1nnc2nc3c(nn12)-c1ccccc1C3=O [Example 1i/B, 3-Methoxymethyl-1,2,3a, 4,10-pentaaza-cyclopenta[b]fluoren-9-one]	1090 nM	556 nM
O=C1c2ccccc2-c2nc3nnc(C4CC4)n3nc21 [Example 1j/A, 1-Cyclopropyl-2,3,4,10,10a-pentaaza-cyclopenta[b]fluoren-9-one]	> 100000 nM	1900 nM
O=C1c2ccccc2-c2nn3c(C4CC4)nnc3nc21 [Example 1j/B, 3-Cyclopropyl-1,2,3a,4,10-pentaaza-cyclopenta[b]fluoren-9-one]	299 nM	188 nM
O=C1c2ccccc2-c2nc3nnc(Cc4ccccc4)n3nc21 [Example 1k/A, 1-Benzyl-2,3,4,10,10a-pentaaza-cyclopenta[b]fluoren-9-one]	> 100000 nM	598 nM
O=C1c2ccccc2-c2nn3c(Cc4ccccc4)nnc3nc21 [Example 1k/B, 3-Benzyl-1,2,3a,4,10-pentaaza-cyclopenta[b]fluoren-9-one]	1210 nM	164 nM
Cc1nnc2nc3c(nn12)-c1ccc(Cl)cc1C3=O [Example 3/B, 7-Chloro-3-methyl-1,2,3a, 4,10-pentaaza-cyclopenta[b]fluoren-9-one]	855 nM	743 nM

Reference: patent US7462615B2, “Inhibitors of cysteine proteases, the pharmaceutical compositions thereof and their therapeutic applications” (Hybrigenics SA, priority 2005, dated 2008)
